Experimental findings from US20230365673A1, “MEANS FOR REDUCING RADIO- AND CHEMOTHERAPY RESISTANCE AND ADVERSE EFFECTS” (JOHANN WOLFGANG GOETHE-UNIVERSITÄT FRANKFURT AM MAIN, priority 2020, published 2023) are described below.

The test system of test [1] is primary mouse colon fibroblasts. Nature of the test: Inflammatory gene expression (RT-qPCR/RNAseq) in fibroblasts treated with APTKA conditioned medium. Type of test: cell-based. On the procedure:
(A) Schematic illustration of APTKA or APTK organoids supernatant collection and treatment of primary mouse colon fibroblasts of unchallenged wildtype C57BL/6 mice. […] (F) Relative expression analysis by RT-qPCR of inflammatory genes in untreated wildtype and APTKA conditioned medium treated fibroblasts in the presence of IKKß inhibitor ML120B (30 μM) and p38 MAPK inhibitor SB203580 (10 μM) for 24 h (n=4 independent wells per group). Data are mean±SD. p<0.05 by one-way ANOVA followed by Tukey's multiple comparisons test. Representative results from one experiment which has been independently repeated 3 times. (G and H) RNA sequencing analysis of APTKA (n=3) and APTK (n=3) organoids: (G) heat map analysis; (H) differentially expressed cytokines in APTKA (Log 2 fold change≤−1) compared to APTK organoids (log 2 fold Change≥1). p-value<0.05. (I) RT-qPCR analysis of inflammatory genes in APTKA conditioned fibroblasts treated with control IgG, α-IL-1α, α-IL-33, α-TNF-α, α-BAFF or α-CXCL16 neutralizing antibodies (2 μg/mL each) for 24 h (n=4 independent wells per group). Data are mean±SD. **** p<0.0001 by one-way ANOVA followed by Tukey's multiple comparisons test. Experiment performed twice. (J) RNA expression profiles of inflammatory genes in APTKA conditioned fibroblasts stimulated for 24 h then subjected to anakinra (10 μg/mL), APTKA fresh or regular medium treatments for another 24 h (n=4 independent wells per condition). Data are mean±SD; p<0.05 by one-way ANOVA followed by Tukey's multiple comparisons test. Representative results from one experiment which has been independently repeated 2 times.
To examine whether APTK and APTKA tumour organoids differentially affect surrounding fibroblasts in tumours directly in a paracrine manner, supernatants were collected from both tumour organoid lines and treated primary intestinal fibroblasts of unchallenged wildtype mice for 24 hours with the two different tumour-conditioned media ex vivo (FIG. 3A). RNAseq analysis confirmed distinct gene expression patterns in fibroblasts exposed to the two organoid supernatants (FIG. 3B).
The inventors then aimed to identify the upstream factors secreted by APTKA organoids that were responsible for activating NF-κB and p38 in fibroblasts. To this end RNAseq analysis of APTK and APTKA tumour organoids were performed and identified several differentially expressed genes encoding cytokines (FIG. 3G, H). Using neutralizing antibodies, NF-κB and p38 inducing cytokines TNFα, IL-1α, IL-33, BAFF or CXCL16 were blocked in APTKA supernatants and expression of Cxcl1, Cxcl2, Cxcl5 and Ilia as inflammatory marker genes in fibroblasts was examined.
To do so, fibroblasts were stimulated for 24 hours with APTKA conditioned medium before adding anakinra, adding fresh APTKA medium or changing medium to regular medium.

For test [2], the system named is APTKA conditioned fibroblasts. As to the kind of experiment: Fibroblast morphology after fractionated irradiation (3×2 Gy). Type of test: cell-based, mouse. How it is done:
(A) Schematic illustration of APTKA organoids supernatant collection and treatment of colon fibroblasts from unchallenged wildtype C57BL/6 mice for 12 h followed by 3×2 Gy irradiation. Microscopic, proteomic & transcriptomic analysis were performed 72 h post first irradiation. (B) Microscopic captures of non-irradiated wildtype (WT) and APTKA conditioned fibroblasts. Remaining captures belong to irradiated fibroblasts: WT, IL-1α (1 μg/mL) stimulated WT, and APTKA conditioned media minus or plus anakinra (20 μg/mL) treated fibroblasts. Scale bars=200 μm. (C) Mass spectrometric analysis of matrisome profiles of 3×2 Gy irradiated (n=8) and non-irradiated (n=8) APTKA conditioned fibroblasts. […] (G) Immunoblot analysis of untreated and irradiated APTKA conditioned fibroblasts. Representative results from one experiment which has been independently repeated 2 times. (H) SA-ß gal staining of untreated and irradiated APTKA fibroblasts. Scale bars=100 μm. (I and J) p21 and pH2AX immunofluorescent staining of untreated and irradiated APTKA fibroblasts. Scale bars=[…]. Data are mean±SD. ** […] and *** p<0.001 by t-test. (K) Nitrite concentration determined by Griess assay in conditioned media from WT, APTK media, APTKA media, IL-1α (1 μg/mL) stimulated and APTKA plus anakinra (20 μg/mL) treated fibroblasts for 72 h (n=10 independent wells per group). […]

Take “anakinra: Kineret®, an interleukin-1 receptor antagonist”: the “expression of Cxcl1, Cxcl5 and Mmp13 in already polarized fibroblasts” value in test [1] (24 h APTKA conditioned medium, then anakinra 10 μg/mL for another 24 h) is listed as “completely reverted expression of these genes”. Also, the “upregulation of pro-inflammatory genes in fibroblasts” value in test [1] (APTKA conditioned medium plus anakinra, data not shown) is “prevented upregulation of pro-inflammatory genes”. For the same substance, in test [2] (wildtype fibroblasts, APTKA conditioned medium plus anakinra 20 μg/mL), the “APTKA-induced elongated, spindle like morphology after irradiation” value was “prevented the APTKA-induced phenotype”.
On to “recombinant IL-1α: recombinant cytokine used to stimulate fibroblasts”, for which, in test [1] (recombinant IL-1α alone, compared with APTKA supernatant, data not shown), the “transcriptomic profile induced in fibroblasts” value is on record as “sufficed to induce a similar transcriptomic profile as APTKA supernatant”. Also, the “fibroblast morphology after irradiation” value in test [2] (recombinant IL-1α 1 μg/mL alone) is on record as “sufficient to cause a comparable morphology after irradiation”.
